Laboratory results: patent US6015560A, “Antibody recognizing endothelial cell ligand for leukocyte CR3” (priority 1995, dated 2000)

Assays:
B. pertussis = conditions: in vivo; cited from earlier work
albumin = conditions: cited from earlier work
blood brain barrier = test: Rabbit meningitis model: CSF protein and lactate (blood brain barrier permeability); type: in vivo
Description: (§1) The rabbit model was performed according to an established protocol. Specific pathogen free, New Zealand white rabbits (2 kg; Hare Marland, Nutley, N.J.) were anesthetized with valium (2.5 mg/kg, subcutaneously, Hoffman-LaRoche, Nutley, N.J.), ketamine (35 mg/kg, intramuscularly, Aveco, Fort Dodge, Iowa) and xylazine (5 mg/kg, intramuscularly, Miles Laboratories, Shawnee, Kans.) and a helmet of dental acrylic was affixed to the calvarium. Twenty four hours later, the rabbits were anesthetized with ethyl carbamate (1.75 g/kg; Aldrich Chemical Co., Milwaukee, Wis.) and pentobarbital (15 mg/kg; Abbott Laboratories, Abbott Park, Ill.) and placed in a stereotaxic frame. A spinal needle was introduced into the cisterna magna and 300 μl of CSF was withdrawn. The animals were challenged intracisternally with 10^8 heat killed, unencapsulated pneumococcus strain R6 introduced in 200 μl of saline (time 0). One hour later, animals were treated with peptides dissolved in 1 ml of saline by intravenous injection into the right marginal ear vein. The concentration of FHA was 0.1 μM and that of the FHA Ia, Factor X II, and scrambled FHA II peptides was 10 μM. For the acetyl-FHA II, acetyl/amide-FHA II, dimer of FHA II and trimer of FHA II peptides, the concentration was 10^-3 μM. The concentration of FHA II is given in the results section. Samples of CSF were withdrawn at hourly intervals after pneumococcal inoculation and leukocyte density was measured using a cell counter (Coulter Electronics Inc., Hialeah, Fla.). CSF samples were centrifuged at 10,000×g for 5 minutes and the supernatant was stored at -70° C. until assayed for protein concentration using the bicinchoninic acid method (BCA Kit, Pierce Chemical Co., Rockford, Ill.) and for lactate concentration (Lactate Detection Kit, Sigma, St. Louis, Mo.). Statistically significant differences between treatments were determined by a one way analysis of variance test.
Loss of barrier function of the cerebral capillary endothelium during inflammation is reflected by an influx of serum proteins into the CSF. […] To examine if the peptides were able to ameliorate these measures of cerebral injury, CSF protein and lactate concentrations were measured hourly in peptide-treated and control animals (Table 10).
Leukocyte migration into the CSF in bacterial meningitis is associated with loss of barrier function of the cerebral capillary endothelium, resulting in influx of serum proteins into the CSF. To determine whether FHA peptides were able to prevent this leukocyte-dependent injury, protein concentrations in the CSF were measured throughout the course of inflammation in peptide-treated and control animals.

CD11b/CD18 = molecular target: T1, CD11b/CD18 (Homo sapiens, UniProt P05107+P11215); test: Downmodulation of CD11b/CD18 on macrophages (binding of C3bi-coated erythrocytes); type: cell-based; conditions: 0.5 mM
T1 construct: C3bi-erythrocyte rosetting after spreading on peptide-coated wells
Description: Human monocytes were purified from buffy coats on Percoll gradients and cultured in 12.5% human serum in Teflon beakers. Macrophages were harvested from Teflon beakers after 6-8 days and suspended in HAP buffer. Terasaki wells were coated with 5 μl of peptides (0.5 mM) or anti-CD18 mAb IB4 (50 μg/ml). Control wells were coated with HAP. After 2 hours of incubation at RT, 5 μl of macrophages (5×10^5 /ml HAP) were added and allowed to spread for 45 mins. at 37° C. […] IgM-coated erythrocytes in buffer served as negative control. After washing, the number of erythrocytes bound per 100 leukocytes (adherence index) was quantitated visually under an inverted microscope.

[1] = system: human umbilical vein endothelial cells; test: Adherence of neutrophils to cultured (TNF-stimulated) endothelial cells; type: cell-based; conditions: for neutrophil adherence blocking activity (in words) / inhibition of neutrophil adherence to endothelial cells: 0.5 mM; for neutrophil adherence blocking activity (in words): compared with FHA Ca
Description: Human umbilical vein endothelial cells (HUVEC, first passage, Clonetics, San Diego, Calif.) were subcultured at confluence into Terasaki tissue culture wells. After 24 hours, confluent monolayers were used for adherence assays. Monolayers were stimulated with 10 ng/ml TNF alpha (Boehringer Mannheim, Indianapolis, Ind.) at 37° C. for four hours. 30 μl of human neutrophils (10^6 /ml) were labeled with fluorescein by the method of Lo et al. (1991), J. Exp. Med. 173 1493-1500, and preincubated for 15 minutes at 37° C. with 20 μl of peptides (0.5 mM in HAP) or HAP (phosphate buffered saline containing 0.5 mg/ml human serum albumin, 3 mM glucose, and 0.3 U/ml aprotinin) as a control buffer. For some experiments, endothelial cells were pretreated from 10 minutes with Factor X or antibodies against Factor X receptor (EPR-1; Altieri et al. (1990), J. Immunol. 145, 246-253) 12H1 and 9D4 (obtained from Dr. D. Altieri, Scripps Research Institute, Lajolla, Calif.) and then washed. Neutrophils were allowed to adhere to the monolayer for 15 mins. at 37° C. and unbound cells were removed by submersion of the plate in PBS buffer. The number of adherent neutrophils was counted in a 40× microscope field and expressed as a percentage of adherence in control wells with neutrophils treated with HAP buffer alone. The mAb IB4 against CD18 (50 μg/ml; Merck Inc., Rahway, N.J.) served as a positive control.
(§2) The procedures for determining the neutrophil adherence to cultured endothelial cells and the transendothelial migration of neutrophils were identical with those of Example 9. Control values were the same as those shown in Example 9.

[2] = Peripheral white blood cells in rats; conditions: rat, in vivo
Description: (§3) Three hours after LOS inoculation, 5 μCi of ^125 I-radiolabelled albumin in 50 μl normal saline was administered intravenously. One hour later, CSF was collected via intracisternal puncture and blood samples were collected via intracardiac puncture. CSF leukocytosis was determined by manually counting white blood cells using a hemacytometer, and blood-brain barrier permeability was determined as the percent of radioactivity in whole blood that was present in the CSF. Blood samples were obtained immediately prior to inoculation, immediately prior to treatment, and at 4 hours post-inoculation for determination of peripheral white blood cell concentrations.

blood-brain barrier = test: Rat meningitis model (LOS): blood-brain barrier permeability; type: in vivo; conditions: for inhibition of blood-brain barrier permeability (in words): rat, in vivo
Description: (§4) Briefly, anesthetized female Wistar rats were placed under a micromanipulator and inoculated intracisternally with a 25 gauge needle. After removal of 50 μl of CSF (without visible blood contamination), rats were inoculated intracisternally with 50 μl (20 ng) of LOS using a 1 ml syringe with a 25 gauge needle. Ten to fifteen minutes after inoculation with LOS, the rats were treated by intravenous administration of the test substance: a solution of an FHA peptide in PBS, a solution of a control peptide in PBS, or an equal volume of PBS alone.
as §3

leukocytes in CSF [3] = test: Rat meningitis model (LOS): CSF leukocytosis; type: in vivo; conditions: 4 hours
Description: The experiments were performed according to established protocols (Wispelway et al., 1988, J. Clin. Invest., 82: 1339-1346). Purified Haemophilus influenzae type b strain DL42 lipooligosaccharide (LOS) was prepared for inoculation by sonication for 30 minutes, dilution to the desired concentration (20 ng/50 μl) in normal saline or PBS, and sonication for an additional 15 to 30 minutes just prior to use.
as §4, §3

[4] = Stability in 50% rabbit plasma; type: in vitro ADME; conditions: 37° C.
Description: To determine the stability of the FHA II peptide, the unmodified or the acetylated-amidated peptide were incubated in 50% rabbit plasma at 37° C.

leukocytes in CSF [5] = test: Rabbit meningitis model: leukocyte migration into CSF; type: in vivo; conditions: for leukocyte migration into CSF (in words): 0.1 μM peptide i.v.; for leukocyte density in CSF: 7 hours, 1 ml of 1 uM peptide i.v.
Description: as §1
The anti-inflammatory effects of the administered peptides were assessed in the rabbit model for meningitis by the procedures described in Example 10. The animals received 1 ml of 1 uM peptide intravenously. In a slight departure from the protocol described in Example 10, samples of blood were drawn from the left marginal ear vein 30 minutes after the administration of the peptides to determine peripheral leukocyte concentrations.

neutrophils = test: Transendothelial migration of neutrophils; type: cell-based, human; conditions: for % Inhibition of TEM: peptides 0.01 mM
Description: Transendothelial migration of neutrophils was studied based on a method described by Muller et al. (1992), J. Exp. Med. 176: 819-828. Briefly, human neutrophils suspended in ice-cold Hanks balanced salt solution (HBSS) containing Ca^++ and Mg^++ (Sigma) were fluoresceinated by adding 3.3 μl/ml 5-(and 6-)carboxyfluorescein diacetate, succinimidyl ester (CFSE, Molecular Probes Inc., Oreg.). After incubation for 30 mins. on ice, neutrophils were washed twice in cold HBSS with Ca^++ and Mg^++ and resuspended in cold Medium 199 (M199, Sigma) to a final concentration of 10^6 /ml. Human umbilical vein endothelial cells were subcultured at confluence into 96-well tissue culture plates (Becton Dickinson Labware, Lincoln Park, N.J.) that were coated with hydrated collagen gel (Vitrogen; Collagen Corporation, Palo Alto, Calif.) and fibronectin. Endothelial cells were stimulated with 10 ng/ml TNF-alpha for 4 hours and washed three times with warm M199. Neutrophils (10^6 /ml) were preincubated with 0.01 mM of peptides or with 1 μM of native FHA in M199 for 5 mins. on ice before they were added in 100 μl aliquots to the endothelial cells. For positive control, neutrophils were pre-incubated with 25 μg/ml anti-CD18 mAb IB4. For negative control, neutrophils were treated with 25 μg/ml mAb W6/32 against HLA class I antigen (Dako, Carpinteria, Calif.). The cells were incubated for 1 hour at 37° C., 5% CO2. To terminate transmigration, the supernatant fluid was aspirated and the wells were filled with warm 1 mM EGTA (Sigma) in HBSS without Ca and Mg. The plates were covered with plate sealers (Dynatech, Alexandria, Va.) and centrifuged in an inverted position at 250 g for 3 mins. at room temperature. To remove residual non-transmigrated neutrophils from the endothelial cells, monolayers were washed twice with 200 μl of warm Hanks solution without Ca and Mg. Fluorescence was quantitated using a fluorescence counter (Millipore Cytofluor™ 2300). The percentage of transmigrated neutrophils was determined by comparing the amount of fluorescence of test wells with that measured in collagen- and fibronectin-coated wells without endothelial cells. […] Percent inhibition of transendothelial migration of neutrophils was calculated by comparing the number of transmigrated cells in wells containing neutrophils treated with peptide to neutrophils treated with M199 alone and arbitrarily set at 100% transendothelial migration (TEM).
as §2

cerebral infarct = test: Rat transient middle cerebral artery occlusion: infarct volume; type: in vivo; conditions: 2 hours MCAo; 50 nmol i.v. plus 150 nmol i.p. boluses; 48 hours
ciliated cells = conditions: cited from earlier work

T1 sequence (P05107 23-769, other chains not shown): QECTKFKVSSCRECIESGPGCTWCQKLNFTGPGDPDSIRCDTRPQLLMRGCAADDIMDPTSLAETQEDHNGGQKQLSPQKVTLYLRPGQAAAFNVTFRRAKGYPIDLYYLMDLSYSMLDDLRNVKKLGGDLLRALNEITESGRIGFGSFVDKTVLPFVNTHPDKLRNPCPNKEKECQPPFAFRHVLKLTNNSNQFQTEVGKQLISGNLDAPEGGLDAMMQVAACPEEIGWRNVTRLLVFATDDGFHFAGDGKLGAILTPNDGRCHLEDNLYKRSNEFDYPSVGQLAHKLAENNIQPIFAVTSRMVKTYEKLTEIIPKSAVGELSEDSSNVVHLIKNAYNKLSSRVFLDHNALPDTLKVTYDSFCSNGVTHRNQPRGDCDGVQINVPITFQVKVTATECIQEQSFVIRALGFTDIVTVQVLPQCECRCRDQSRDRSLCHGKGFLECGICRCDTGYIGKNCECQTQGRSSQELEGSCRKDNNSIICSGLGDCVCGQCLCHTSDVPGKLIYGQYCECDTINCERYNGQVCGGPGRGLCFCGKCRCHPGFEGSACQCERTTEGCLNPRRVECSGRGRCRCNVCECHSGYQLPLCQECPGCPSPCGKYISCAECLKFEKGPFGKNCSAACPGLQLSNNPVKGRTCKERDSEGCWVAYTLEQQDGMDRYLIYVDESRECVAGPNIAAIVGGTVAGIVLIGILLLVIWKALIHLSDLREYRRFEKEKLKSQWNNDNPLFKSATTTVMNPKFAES

## OC[C@H]1O[C@@H](O[C@H]2[C@H](O)[C@@H](O)C(O)O[C@@H]2CO)[C@H](O)[C@@H](O)[C@H]1O (stereo partly drawn) [Lactose]
B. pertussis
  colonization of rabbit lung: decrease colonization of rabbit lung

## CC1(C)S[C@@H]2[C@H](NC(=O)Cc3ccccc3)C(=O)N2[C@H]1C(=O)O [penicillin]
albumin
  bound to albumin: ~80%

## AADPHQGVLAQGDIIMDAKG [FHA Cc]
Blood brain barrier; 6 hours
  Total protein in CSF: 1.36 ± 0.16 mg/mL
Blood brain barrier; 7 hours
  Total protein in CSF: 1.90 ± 0.22 mg/mL
CD11b/CD18
  effect on CD11b/CD18 (in words): no significant effect
[1]
  neutrophil adherence blocking activity (in words): activity was detectable above background but was not statistically different from buffer alone

## Ac-ETKEVDG-NH2 [Acetyl/Amide-FHA II]
[2]
  neutropenia: No neutropenia
blood-brain barrier
  inhibition of blood-brain barrier permeability (in words): not observed
Blood brain barrier; 10 μM peptides, 0.1 μM FHA
  protein influx into CSF and lactate generation (in words): significantly reduced protein influx into the CSF and generation of lactate
Leukocytes in CSF [3]; 600 nmol i.v.
  Leukocytosis (CSF leukocyte concentration): approximately 10,000 cells/ml
Leukocytes in CSF [3]; 600 nmol i.v., listed as ac/am FHA II
  Leukocytosis (CSF leukocyte concentration): 10,500 ± 8523 cells/ml
[1]; peptides 0.5 mM
  interference with neutrophil adherence (in words): significantly enhanced the ability of peptide FHA II to block neutrophil adherence to endothelia
[4]
  concentration over time (in words): remained unchanged over 48 hours
Leukocytes in CSF [5]; 6 hours, 10 nmoles i.v.
  leukocytes in CSF: 3011±684 cells/μl

## Ac-VEEDTKG-NH2 [scrambled ac/am FHA II, VEEDTKG, reference compound]
Leukocytes in CSF [3]; 600 nmol i.v.
  Leukocytosis (CSF leukocyte concentration): 14,287 ± 10,199 cells/ml

## GTLLLRNDALTENGTVTISA [FHA Cd]
neutrophils
  % Inhibition of TEM: 6 ± 6%
Blood brain barrier; 6 hours
  Total protein in CSF: 1.71 ± 0.19 mg/mL
Blood brain barrier; 7 hours
  Total protein in CSF: 2.03 ± 0.57 mg/mL
CD11b/CD18
  effect on CD11b/CD18 (in words): no significant effect
[1]
  inhibition of neutrophil adherence to endothelial cells: < 15%
Leukocytes in CSF [5]; 1 μM peptide i.v.
  leukocyte recruitment into CSF (in words): no effect

## IDVPQHGGAMRDLGIAQGKD [scrambled FHA Ca, reference compound]
Leukocytes in CSF [3]; 100 nmol i.v.
  Leukocytosis (CSF leukocyte concentration): 20,700 ± 7,400 cells/ml

## RADPHQGVLAQGDIIMDAKG [FHA Cb]
neutrophils
  % Inhibition of TEM: 8 ± 9%
Blood brain barrier; 6 hours
  Total protein in CSF: 1.91 ± 0.24 mg/mL
Blood brain barrier; 7 hours
  Total protein in CSF: 2.28 ± 0.28 mg/mL
CD11b/CD18
  effect on CD11b/CD18 (in words): no significant effect
[1]
  neutrophil adherence blocking activity (in words): activity was decreased by half
Leukocytes in CSF [5]
  leukocyte migration into CSF (in words): ineffective
  leukocyte density in CSF: 2788±1022 cells/μl CSF

## RGDPHQGVLAQGDIIMDAKG [FHA Ca]
neutrophils
  concentration required for inhibition of transendothelial migration similar to native FHA (82%): 10 µM
[2]
  neutropenia: No neutropenia
blood-brain barrier; 100 nmol i.v., radioactivity in CSF of that in whole blood
  BBB permeability: 3.0%
blood-brain barrier
  inhibition of blood-brain barrier permeability (in words): dose dependent
Blood brain barrier; 6 hours
  Total protein in CSF: 1.18 ± 0.39 mg/mL
Blood brain barrier; 7 hours
  Total protein in CSF: 1.69 ± 0.41 mg/mL
Cerebral infarct
  infarct volume: approximately 25 % of the hemisphere
[1]
  concentration at which loss of activity (≤20% inhibition) occurred: 1 µM
  inhibition of neutrophil adherence to endothelial cells: 47±7%
[1]; concentration dependence
  maximal inhibition of neutrophil attachment: ~ 50%
Leukocytes in CSF [5]
  leukocyte migration into CSF (in words): significantly reduced leukocyte migration into the CSF
  leukocyte density in CSF: 2137±1498 cells/μl CSF

## lactosamines
Ciliated cells
  inhibition of adherence of B. pertussis to human ciliated cells: Inhibition of adherence
